Results as given in patent US6737383B1, “Herbicidal oxadiazolidines” (priority 1999, dated 2004).

Key:
crabgrass = assay: Test B pre/postemergence crabgrass; assay type: in vivo, Digitaria sanguinalis
How it was run: (§1)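 Herbicidal effect was estimated by eye on a ten-point control scale after plants spent twelve to sixteen days in a greenhouse following soil or foliar treatment. Foliar sprays targeted plants at one to four leaves; all doses were formulated in a non-phytotoxic solvent with surfactant.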

cocklebur = assay: Test B pre/postemergence cocklebur; assay type: in vivo, Xanthium strumarium
How it was run: as §1

wild oat = assay: Test B pre/postemergence wild oat; assay type: in vivo, Avena fatua
How it was run: as §1

wheat = assay: Test B pre/postemergence wheat; assay type: in vivo, Triticum aestivum
How it was run: as §1

[1] = Postemergence, Rate 62 g/ha, scale 0 to 10, 0 is no effect, 10 is complete control
[2] = Postemergence, Rate 250 g/ha, scale 0 to 10, 0 no effect, 10 complete control
[3] = Preemergence, Rate 62 g/ha, scale 0 to 10, 0 is no effect, 10 is complete control
[4] = Preemergence, Rate 125 g/ha, scale 0 to 10 (0 no effect, 10 complete control)
[5] = Preemergence, Rate 250 g/ha, scale of 0 to 10 where 0 is no effect and 10 is complete control
[6] = Preemergence, Rate 500 g/ha, scale 0 (no effect) to 10 (complete control)
[7] = Rate 125 g/ha, Postemergence, scale 0 to 10, 0 no effect, 10 complete control
[8] = Rate 500 g/ha, Postemergence, 0 to 10 scale (0 no effect, 10 complete control)
[9] = Rate 500 g/ha, Postemergence, scale 0 to 10, 0 no effect, 10 complete control
[10] = Preemergence, Rate 62 g/ha, scale 0 to 10 (0 no effect, 10 complete control)
[11] = Postemergence, Rate 125 g/ha, scale of 0 to 10 where 0 is no effect and 10 is complete control
[12] = Rate 250 g/ha, Postemergence, scale 0 to 10, 0 is no effect, 10 is complete control

Compound	Crabgrass plant response rating (crabgrass; [1])	Crabgrass plant response rating (crabgrass; [2])	Plant response rating, Crabgrass (crabgrass; [4])	Plant response rating, Crabgrass (crabgrass; [5])	Crabgrass plant response rating (crabgrass; [6])	Crabgrass plant response rating (crabgrass; [7])	Cocklebur plant response rating (cocklebur; [1])	Cocklebur plant response rating (cocklebur; [2])	Plant response rating, Cocklebur (cocklebur; [4])	Plant response rating, Cocklebur (cocklebur; [5])	Cocklebur plant response rating (cocklebur; [6])	Cocklebur plant response rating (cocklebur; [7])	Wild oats plant response rating (wild oat; [1])	Plant response rating, Wild oats (wild oat; [4])	Plant response rating, Wild oats (wild oat; [5])	Wild oats plant response rating (wild oat; [6])	Wheat plant response rating (wheat; [1])	Plant response rating, Wheat (wheat; [4])	Plant response rating, Wheat (wheat; [5])	Wheat plant response rating (wheat; [6])	further results
Cc1ccccc1-n1c(=O)on(C(=O)N(c2ccc(Cl)cc2)C(C)C)c1=O [Compound 41]	0	5	4	8	10	1	0	1	0	0	0	0	0	0	0	4	0	0	0	0	Plant response rating, Crabgrass (crabgrass; [3]): 3; Crabgrass plant response rating (crabgrass; [8]): 7; Plant response rating, Cocklebur (cocklebur; [3]): 0; Cocklebur plant response rating (cocklebur; [8]): 3; Wild oats plant response rating (wild oat; [2]): 0; Wild oats plant response rating (wild oat; [7]): 0; Wheat plant response rating (wheat; [2]): 0; Plant response rating, Wheat (wheat; [3]): 0; Wheat plant response rating (wheat; [7]): 0
CC(C)Oc1cc(-n2c(=O)on(C(=O)N(c3ccc(F)cc3)C(C)C)c2=O)c(Cl)cc1Cl [Compound 43]	1	2	0	0	0	2	0	0	0	0	0	0	0	0	0	0	0	0	0	0	Plant response rating, Crabgrass (crabgrass; [3]): 0; Crabgrass plant response rating (crabgrass; [8]): 2; Plant response rating, Cocklebur (cocklebur; [3]): 0; Cocklebur plant response rating (cocklebur; [8]): 1; Wild oats plant response rating (wild oat; [2]): 0; Wild oats plant response rating (wild oat; [7]): 0; Wheat plant response rating (wheat; [2]): 0; Plant response rating, Wheat (wheat; [3]): 0; Wheat plant response rating (wheat; [7]): 0
CCc1ccccc1-n1c(=O)on(C(=O)N(c2ccc(F)cc2F)C(C)C)c1=O [Compound 45]	0	2	1	1	9	0	0	2	0	0	0	1	0	0	0	0	0	0	0	0	Plant response rating, Crabgrass (crabgrass; [3]): 0; Crabgrass plant response rating (crabgrass; [8]): 3; Plant response rating, Cocklebur (cocklebur; [3]): 0; Cocklebur plant response rating (cocklebur; [8]): 5; Wild oats plant response rating (wild oat; [2]): 0; Wild oats plant response rating (wild oat; [7]): 0; Wheat plant response rating (wheat; [2]): 0; Plant response rating, Wheat (wheat; [3]): 0; Wheat plant response rating (wheat; [7]): 0
Cc1ccccc1-n1c(=O)on(C(=O)N(c2ccc(C#N)cc2)C(C)C)c1=O [Compound 51]	0	3	0	2	2	0	0	0	0	0	0	0	0	0	0	0	0	0	0	0	Plant response rating, Crabgrass (crabgrass; [3]): 0; Crabgrass plant response rating (crabgrass; [9]): 4; Plant response rating, Cocklebur (cocklebur; [3]): 0; Cocklebur plant response rating (cocklebur; [9]): 0; Wild oats plant response rating (wild oat; [2]): 0; Wild oats plant response rating (wild oat; [7]): 0; Wild oats plant response rating (wild oat; [9]): 0; Wheat plant response rating (wheat; [2]): 0; Plant response rating, Wheat (wheat; [3]): 0; Wheat plant response rating (wheat; [7]): 0; Wheat plant response rating (wheat; [9]): 0
CCN(C(=O)n1oc(=O)n(-c2c(C)cc(C)cc2C)c1=O)C1CCCCC1 [Compound 63]	0	0	0	1	2	0	0	0	0	0	0	0	0	0	0	0	0	0	0	0	Crabgrass plant response rating (crabgrass; [10]): 0; Crabgrass plant response rating (crabgrass; [9]): 2; Cocklebur plant response rating (cocklebur; [10]): 0; Cocklebur plant response rating (cocklebur; [9]): 0; Wild oats plant response rating (wild oat; [2]): 0; Wild oats plant response rating (wild oat; [10]): 0; Wild oats plant response rating (wild oat; [7]): 0; Wild oats plant response rating (wild oat; [9]): 2; Wheat plant response rating (wheat; [2]): 0; Wheat plant response rating (wheat; [10]): 0; Wheat plant response rating (wheat; [7]): 0; Wheat plant response rating (wheat; [9]): 2
CC(C)N(C(=O)n1oc(=O)n(Cc2cccs2)c1=O)c1ccc(F)cc1 [Compound 80]	2	9	3	10	10	9	0	0	0	0	0	0	0	2	3	5	0	0	0	0	Crabgrass plant response rating (crabgrass; [10]): 3; Crabgrass plant response rating (crabgrass; [9]): 9; Cocklebur plant response rating (cocklebur; [10]): 0; Cocklebur plant response rating (cocklebur; [9]): 1; Wild oats plant response rating (wild oat; [2]): 0; Wild oats plant response rating (wild oat; [10]): 0; Wild oats plant response rating (wild oat; [7]): 0; Wild oats plant response rating (wild oat; [9]): 0; Wheat plant response rating (wheat; [2]): 0; Wheat plant response rating (wheat; [10]): 0; Wheat plant response rating (wheat; [7]): 0; Wheat plant response rating (wheat; [9]): 0
CCN(CC)C(=O)n1oc(=O)n(-c2cccc3c2CCCC3)c1=O [Compound 89]	0	0	0	0	2		1	2	0	0	0		0	0	0	0	0	0	0	0	Crabgrass plant response rating (crabgrass; [11]): 0; Crabgrass plant response rating (crabgrass; [10]): 0; Crabgrass plant response rating (crabgrass; [9]): 2; Cocklebur plant response rating (cocklebur; [11]): 1; Cocklebur plant response rating (cocklebur; [10]): 0; Cocklebur plant response rating (cocklebur; [9]): 2; Wild oats plant response rating (wild oat; [11]): 0; Wild oats plant response rating (wild oat; [10]): 0; Plant response rating, Wild oats (wild oat; [12]): 0; Wild oats plant response rating (wild oat; [9]): 0; Wheat plant response rating (wheat; [11]): 0; Wheat plant response rating (wheat; [10]): 0; Plant response rating, Wheat (wheat; [12]): 0; Wheat plant response rating (wheat; [9]): 0
